Assay results published in PMC7503831 (Molecules, 2020).
Entries after “also recorded” stand apart in the source; their conditions may differ. Like-named read-outs stand apart in the source and are kept apart here. Marks after values point to notes of the source that are not given here.

Assays:
[1] = target: T1, human MOR (Homo sapiens, UniProt P35372); experiment: Competitive binding assay, [3H]DAMGO displacement, MOR
T1 construct: expressed in transfected cells; host or cells: CHO cells (membrane preparation)
Experimental: (§1) The human MOR, DOR, or KOR recombinant CHO cell pellets were resuspended in 50 mM Tris–HCl buffer containing 5 mM MgCl2, 1 mM ethylene glycol bis(2-aminoethyl ether)-N,N,N,N-tetraacetic acid (EGTA), pH 7.4. The cell suspensions were disrupted by use of a glassteflon homogeniser and centrifuged at 48,000× g for 15 min. The supernatant was discarded and the pellets were resuspended in buffer at a concentration of 5 mg protein/mL and stored at −80 °C until further use.
(§2) Human MOR, DOR, or KOR recombinant CHO cell membranes were incubated for 2 h at 25 °C in 0.25 mL of the buffer containing with various concentrations of the tested compound, 2 nM [^3H] DAMGO, [^3H] […] U69,593 (PerkinElmer, Inc., MA, USA), respectively. The incubation was terminated by collecting membranes on Filtermat B filter (PerkinElmer, Inc.) using a FilterMate™ harvester (PerkinElmer, Inc.). The filters were then washed three times with 50 mM Tris–HCl buffer, pH 7.4. Then, MeltiLex scintillant (PerkinElmer, Inc.) was melted onto the dried filters. Radioactivity was determined by a MicroBeta scintillation counter (PerkinElmer, Inc.). […] Ki and 95% CI values were calculated by Prism software (version 5.0).

[2] = target: T2, human DOR (Homo sapiens, UniProt P41143); experiment: [35S]GTPγS binding assay, functional activity for the DOR; format: biochemical; conditions: for Emax: read-out: Functional Activity for DOR, Emax (95% CI)
T2 construct: expressed in transfected cells; host or cells: CHO cells (membrane preparation)
Experimental: as §1
Human MOR, DOR, or KOR recombinant CHO cell membranes were incubated for 2 h at 25 °C in 0.25 mL of 50 mM Tris–HCl buffer containing 5 mM MgCl2, 1 mM EGTA, 100 mM NaCl, pH 7.4 with various concentrations of the tested compound, 30 μM guanosine 5-diphosphate (GDP) and 0.1 nM [^35S]GTPγS (PerkinElmer, Inc.). The incubation was terminated by collecting membranes on Filtermat B filter (PerkinElmer, Inc.) using a FilterMate™ harvester (Perkin Elmer, Inc.). The filters were then washed three times with 50 mM Tris–HCl buffer, pH 7.4. Then, MeltiLex scintillant (PerkinElmer, Inc.) was melted onto the dried filters. Radioactivity was determined by a MicroBeta scintillation counter (PerkinElmer, Inc.). EC50, Emax, and 95% CI values were calculated by Prism software (version 5.0). Nonspecific binding was measured in the presence of 10 μM unlabeled GTPγS (PerkinElmer, Inc.).

[3] = target: T2, human DOR; experiment: Competitive binding assay, [3H]DPDPE displacement, DOR
Experimental: as §1, §2

[4] = target: T3, human KOR (Homo sapiens, UniProt P41145); experiment: Competitive binding assay, [3H]U69,593 displacement, KOR
T3 construct: expressed in transfected cells; host or cells: CHO cells (membrane preparation)
Experimental: as §1, §2

[5] = target: T2, human DOR; conditions: cited from earlier work; for Emax: Percent stimulation at 10 μM of the tested compound / Emax for the DOR (95% CI) / Functional Activity for DOR, Emax (95% CI) / EC50: [35S]GTPγS
[6] = target: T2, human DOR; conditions: cited from earlier work
[7] = read-out: Functional Activity for DOR, EC50 (95% CI), human DOR recombinant CHO cell membrane
[8] = read-out: Binding Affinity, Ki (DOR) (95% CI), [3H]DPDPE, CHO cells expressing human DOR
[9] = read-out: EC50 for the DOR (95% CI)
[10] = read-out: Ki for the DOR (95% CI)

Compound | Ki [1] | Functional activity for the DOR, in words ([2]; [35S]GTPγS) | Emax [2] | Ki [3] | Ki [4] | Emax for the DOR (95% CI) [5] | Ki [6, 10] | other results
CS(=O)(=O)N1CCC23c4c5ccc(O)c4OC2c2[nH]c4ccccc4c2CC3(O)C1C5 (stereo not drawn) [9a, 6,7-Didehydro-4,5α-epoxy-17-(methylsulfonyl)indolo[2′,3′:6,7]morphinan-3,14β-diol] | 10100 nM | inverse agonist activities | -48.8% | 284 nM | – | – | – | EC50 [2]: 0.468 nM
O=S(=O)(N1CCC23c4c5ccc(O)c4OC2c2[nH]c4ccccc4c2CC3(O)C1C5)C(F)(F)F (stereo not drawn) [9b, 6,7-Didehydro-4,5α-epoxy-17-(1,1,1-trifluoromethylsulfonyl)indolo[2′,3′:6,7]morphinan-3,14β-diol] | 11800 nM | inverse agonist activities | – | 365 nM | 675 nM | – | – | Emax at 10 µM ([2]; read-out: Emax: Percent stimulation at 10 μM of the tested compound, [35S]GTPγS, 10 μM): -36.1%
O=S(=O)(c1ccccc1)N1CCC23c4c5ccc(O)c4OC2c2[nH]c4ccccc4c2CC3(O)C1C5 (stereo not drawn) [9c, 6,7-Didehydro-4,5α-epoxy-17-(phenylsulfonyl)indolo[2′,3′:6,7]morphinan-3,14β-diol] | 20500 nM | neutral DOR antagonist | – | 49.6 nM | 95.6 nM | – | – | –
O=S(=O)(Cc1ccccc1)N1CCC23c4c5ccc(O)c4OC2c2[nH]c4ccccc4c2CC3(O)C1C5 (stereo not drawn) [9d, 17-(Benzylsulfonyl)-6,7-didehydro-4,5α-epoxyindolo[2′,3′:6,7]morphinan-3,14β-diol] | 5180 nM | DOR agonists | 47.1% | 734 nM | 18800 nM | – | – | Binding affinity for the DOR, in words [3]: low
O=S(=O)(CCc1ccccc1)N1CCC23c4c5ccc(O)c4OC2c2[nH]c4ccccc4c2CC3(O)C1C5 (stereo not drawn) [9e, 6,7-Didehydro-4,5α-epoxy-17-((2-phenylethyl)sulfonyl)indolo[2′,3′:6,7]morphinan-3,14β-diol] | 1400 nM | DOR agonists; also recorded: full DOR agonist activity with moderate potency | 88.1% | 132 nM | 17800 nM | – | – | EC50 [2]: 75.8 nM; Functional activity category for the DOR (by Emax) ([2]; [35S]GTPγS): full agonist
O=S(=O)(C1CC1)N1CCC23c4c5ccc(O)c4OC2c2[nH]c4ccccc4c2CC3(O)C1C5 (stereo not drawn) [9f, 17-(Cyclopropylsulfonyl)-6,7-didehydro-4,5α-epoxyindolo[2′,3′:6,7]morphinan-3,14β-diol] | 3900 nM | inverse agonist activities; also recorded: almost full inverse agonists | -80.5% | 7.44 nM | 13.6 nM | – | – | EC50 [2]: 1.59 nM; Functional activity category for the DOR (by Emax) ([2]; [35S]GTPγS): full inverse agonist (full inverse agonist (−80% ≥ Emax)); Affinity for the DOR, fold lower than that of the mother compound NTI ([3]; Ki compared with NTI): over 10 fold
C=CS(=O)(=O)N1CCC23c4c5ccc(O)c4OC2c2[nH]c4ccccc4c2CC3(O)C1C5 (stereo not drawn) [9g, 6,7-Didehydro-4,5α-epoxy-17-(ethenylsulfonyl)indolo[2′,3′:6,7]morphinan-3,14β-diol] | 3570 nM | inverse agonist activities; also recorded: almost full inverse agonists | -80.2% | 196 nM | 59100 nM | – | – | EC50 [2]: 7.8 nM
Oc1ccc2c3c1O[C@H]1c4[nH]c5ccccc5c4C[C@@]4(O)[C@@H](C2)N(CC2CC2)CC[C@]314 [NTI, naltrindole] | – | – | – | – | – | – | – | Emax: Percent stimulation at 10 μM of the tested compound [5]: 7.50 ^h %; Functional activity for the DOR, in words [5]: neutral antagonist
Oc1ccc2c3c1O[C@H]1c4[nH]c5ccccc5c4C[C@@]4(O)[C@@H](C2)N(CC(F)(F)F)CC[C@]314 [SYK-165] | – | – | – | – | – | −44.8% | – | –
Oc1ccc2c3c1O[C@H]1c4[nH]c5ccccc5c4C[C@@]4(O)[C@@H](C2)N(Cc2ccccc2)CC[C@]314 [SYK-619] | – | – | – | – | – | – | – | Functional Activity for DOR, Emax (95% CI) [5]: −56.5%; EC50 [5, 7]: 16.1 nM; Ki [6, 8]: 15.8 nM
O=C(C1CC1)N1CC[C@]23c4c5ccc(O)c4O[C@H]2c2[nH]c4ccccc4c2C[C@@]3(O)[C@H]1C5 [SYK-623] | – | – | – | – | – | −91.2% | 17.3 nM | Functional activity for the DOR, in words [5]: full inverse agonist; Functional activity for the DOR, in words ([5]; listed as SKY-623): DOR full inverse agonist with high potency; EC50 [5, 9]: 0.969 nM
C=CCN1CC[C@]23c4c5ccc(O)c4O[C@H]2c2[nH]c4ccccc4c2C[C@@]3(O)[C@H]1C5 [SYK-706] | – | – | – | – | – | – | – | Functional Activity for DOR, Emax (95% CI) [5]: 16.2%; EC50 [5, 7]: 101 nM; Ki [6, 8]: 0.609 nM
Oc1ccc2c3c1O[C@H]1c4[nH]c5ccccc5c4C[C@@]4(O)[C@@H](C2)N(CCc2ccccc2)CC[C@]314 [SYK-707] | – | – | – | – | – | – | – | Functional Activity for DOR, Emax (95% CI) [5]: 40.3%; EC50 [5, 7]: 15.1 nM; Ki [6, 8]: 1.94 nM
O=C(c1ccccc1)N1CC[C@]23c4c5ccc(O)c4O[C@H]2c2[nH]c4ccccc4c2C[C@@]3(O)[C@H]1C5 [SYK-736] | – | – | – | – | – | −92.7% | 290 nM | EC50 [5, 9]: 322 nM
CC(=O)N1CC[C@]23c4c5ccc(O)c4O[C@H]2c2[nH]c4ccccc4c2C[C@@]3(O)[C@H]1C5 [SYK-747] | – | – | – | – | – | – | 977 nM | Emax: Percent stimulation at 10 μM of the tested compound [5]: −4.86%
O=C(N1CC[C@]23c4c5ccc(O)c4O[C@H]2c2[nH]c4ccccc4c2C[C@@]3(O)[C@H]1C5)C(F)(F)F [SYK-752] | – | – | – | – | – | – | 7.84 nM | Emax: Percent stimulation at 10 μM of the tested compound [5]: −1.10%
O=C(CCc1ccccc1)N1CC[C@]23c4c5ccc(O)c4O[C@H]2c2[nH]c4ccccc4c2C[C@@]3(O)[C@H]1C5 [SYK-753] | – | – | – | – | – | 97.5% | 41.5 nM | EC50 [5, 9]: 132 nM
O=C(Cc1ccccc1)N1CC[C@]23c4c5ccc(O)c4O[C@H]2c2[nH]c4ccccc4c2C[C@@]3(O)[C@H]1C5 [SYK-754] | – | – | – | – | – | 88.5% | 89 nM | Functional activity for the DOR, in words [5]: DOR full agonist with moderate potency; EC50 [5, 9]: 127 nM
C=CC(=O)N1CC[C@]23c4c5ccc(O)c4O[C@H]2c2[nH]c4ccccc4c2C[C@@]3(O)[C@H]1C5 [SYK-836] | – | – | – | – | – | −86.2% | 1.16 nM | EC50 [5, 9]: 1.43 nM
Oc1ccc2c3c1O[C@H]1c4[nH]c5ccccc5c4C[C@@]4(O)[C@@H](C2)N(CCCc2ccccc2)CC[C@]314 [SYK-903] | – | – | 105% | 166 nM | – | – | – | EC50 [2]: 7.37 nM
